test system: miR-124; assay: miR-124 (RT-q)PCR in PBMCs, CD4+ and CD8+ T cells, macrophages; assay type: cell-based, human; conditions: PBMCs treated with antiretrovirals
Method: Buffy coats from HIV-negative individuals were obtained from the local blood donation center in Centre de transfusion sanguine Montpellier. Human peripheral blood mononuclear cells (PBMCs) were isolated by Ficoll (Histopaque, Sigma) gradient centrifugation. CD4+ and CD8+ T cells were purified from PBMCs after Ficoll gradient centrifugation by Human CD4+ beads positive selection and CD8+ beads positive selection, respectively (Miltenyi). PBMCs, CD4+ and CD8+ T cells were grown at 37° C. and 5% CO2 to a density of 1.5×10^6 cells/ml in RPMI GlutaMAX medium (Life Technologies) supplemented with 10% fetal calf serum (FCS) (Thermo Fisher), 40 U/ml of IL2 (PeproTech) and 5 μg/mL of PHA (Roche) for 2 days. Three days later, cells were resuspended at 1.5×10^6 cells/ml in RPMI supplemented with 10% FCS and 40 U/ml IL2 and separated into two parts (infected and uninfected cells). Cells were infected with 80 ng of p24/106 cells of the YU-2 strain for 4 to 6 hours and then rinsed with PBS before medium renewal.
Both infected and uninfected cells were then centrifuged and resuspended to a density of 1.5×10^6 cells/ml in medium supplemented with diluted drug solubilized in DMSO (Sigma) to a final 0.05% DMSO concentration or antiretroviral compounds according to the manufacturer's instructions. Cells were treated for 6 days with a medium renewal at day 3. HIV p24 titration was performed by ELISA from cell culture supernatants with Innotest kit (Ingen) according to the manufacturer's instructions.
To generate monocyte-derived macrophages, monocytes were isolated using CD14+ positive microbeads (Miltenyi) and cultured in X-VIVO 10 medium (Lonza) supplemented with 10 mM HEPES, 1 mM sodium pyruvate, 1% non-essential amino acids, 10% FBS, 10 ng/ml GM-CSF and 100 ng/ml M-CSF for 7 days with medium renewal at day 3. After 7 days of differentiation, the cells were washed, plated in 6-well plates and incubated for 24 hours in medium without cytokine addition. Cells were treated for 6 days with a partial medium change at day 3.
miRNAs were extracted from PBMCs, CD4+ or CD8+ T cells using the NucleoSpin miRNeasy kit (Macherey-Nagel) according to the manufacturer's instructions. miRNA reverse transcription (RT) was performed using the miScript II RT kit (Qiagen). […] The relative levels of miR-124 were calculated using the 2^−ΔΔCt method.
Total RNA was extracted from macrophages using the Macherey-Nagel NucleoSpin miRNeasy kit. miRNA reverse transcription (RT) was performed on 2 μl of total RNA according to the Applied Biosystems TaqMan Advanced miRNA assays protocol for TaqMan qPCR. […] PCR runs were analyzed with Applied Biosystems ViiA 7 software.

Molecule	miR-124 expression compared to untreated cells (DMSO)
Cc1cn([C@H]2C[C@H](N=[N+]=[N-])[C@@H](CO)O2)c(=O)[nH]c1=O [AZT]	did not upregulate
CC(C)CN(C[C@@H](O)[C@H](Cc1ccccc1)NC(=O)O[C@H]1CO[C@H]2OCC[C@H]21)S(=O)(=O)c1ccc(N)cc1 [darunavir]	did not upregulate
maraviroc	did not upregulate
O=C1Nc2ccc(Cl)cc2[C@@](C#CC2CC2)(C(F)(F)F)O1 [efavirenz]	did not upregulate

— patent US20220145406A1, “BIOMARKERS, AND USES IN TREATMENT OF VIRAL INFECTIONS, INFLAMMATIONS, OR CANCER” (ABIVAX, priority 2018, published 2022)
